Assay results published in ChEMBL document CHEMBL1201861, “Genomics of Drug Sensitity in Cancer screening data, Wellcome Trust Sanger Institute”.

Columns and labels:
Experiment in all cases: cells
NH-12 = format: functional, cell-based, Homo sapiens; conditions: Homo sapiens, NH-12;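 note: growth inhibition of NH-12 cells, read out with a cell viability assay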
Description: SANGER: Inhibition of human NH-12 cell growth in a cell viability assay.

SBC-1 = format: functional, cell-based, Homo sapiens; conditions: Homo sapiens, SBC-1;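 note: cell viability assay measuring growth inhibition of the SBC-1 cell line, IC50 being the concentration that halves growth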
Description: SANGER: Inhibition of human SBC-1 cell growth in a cell viability assay.

P30-OHK = format: functional, cell-based, Homo sapiens; conditions: Homo sapiens, P30-OHK;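 note: growth inhibition of the P30-OHK cell line, read out with a cell viability assay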
Description: SANGER: Inhibition of human P30-OHK cell growth in a cell viability assay.

HH = format: functional, cell-based, Homo sapiens; conditions: Homo sapiens, HH
Description: SANGER: Inhibition of human HH cell growth in a cell viability assay.

KU812 cell line = format: functional, cell-based, Homo sapiens; conditions: Homo sapiens, KU812;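 note: growth inhibition of KU812 cells, read out with a cell viability assay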
Description: SANGER: Inhibition of human KU812 cell growth in a cell viability assay.

TGW = format: functional, cell-based, Homo sapiens; conditions: Homo sapiens, TGW;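 note: growth inhibition of human TGW cells, read out with a cell viability assay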
Description: SANGER: Inhibition of human TGW cell growth in a cell viability assay.

COLO-668 = format: functional, cell-based, Homo sapiens; conditions: Homo sapiens, COLO-668
Description: SANGER: Inhibition of human COLO-668 cell growth in a cell viability assay.

LS-513 = format: functional, cell-based, Homo sapiens; conditions: Homo sapiens, LS-513
Description: SANGER: Inhibition of human LS-513 cell growth in a cell viability assay.

NCI-H1092 = format: functional, cell-based, Homo sapiens; conditions: Homo sapiens, NCI-H1092;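 note: cell growth inhibition measured with a cell viability assay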
Description: SANGER: Inhibition of human NCI-H1092 cell growth in a cell viability assay.

EW-13 = format: functional, cell-based, Homo sapiens; conditions: Homo sapiens, EW-13;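 note: growth inhibition of EW-13 cells, read out with a cell viability assay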
Description: SANGER: Inhibition of human EW-13 cell growth in a cell viability assay.

NB17 = format: functional, cell-based, Homo sapiens; conditions: Homo sapiens, NB17;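 note: growth inhibition of NB17 cells, read out with a cell viability assay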
Description: SANGER: Inhibition of human NB17 cell growth in a cell viability assay.

COR-L88 = format: functional, cell-based, Homo sapiens; conditions: Homo sapiens, COR-L88;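 note: growth inhibition of COR-L88 cells, read out with a cell viability assay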
Description: SANGER: Inhibition of human COR-L88 cell growth in a cell viability assay.

JAR = format: functional, cell-based, Homo sapiens; conditions: Homo sapiens, JAR;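 note: growth inhibition of human JAR cells determined with a cell viability assay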
Description: SANGER: Inhibition of human JAR cell growth in a cell viability assay.

DMS-79 = format: functional, cell-based, Homo sapiens; conditions: Homo sapiens, DMS-79;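 note: growth inhibition measured with a cell viability assay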
Description: SANGER: Inhibition of human DMS-79 cell growth in a cell viability assay.

HAL-01 = format: functional, cell-based, Homo sapiens; conditions: Homo sapiens, HAL-01;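 note: growth inhibition of human HAL-01 cells, read out with a cell viability assay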
Description: SANGER: Inhibition of human HAL-01 cell growth in a cell viability assay.

HL-60 = format: functional, cell-based, Homo sapiens; conditions: Homo sapiens, HL-60;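 note: growth inhibition of human HL-60 cells, read out with a cell viability assay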
Description: SANGER: Inhibition of human HL-60 cell growth in a cell viability assay.

GAK = format: functional, cell-based, Homo sapiens; conditions: Homo sapiens, GAK;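 note: cell growth inhibition read out by a cell viability assay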
Description: SANGER: Inhibition of human GAK cell growth in a cell viability assay.

DSH1 = format: functional, cell-based, Homo sapiens; conditions: Homo sapiens, DSH1;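 note: growth inhibition of human DSH1 cells, measured with a cell viability readout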
Description: SANGER: Inhibition of human DSH1 cell growth in a cell viability assay.

SW982 = format: functional, cell-based, Homo sapiens; conditions: Homo sapiens, SW982;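 note: growth inhibition of SW982 cells, read out with a cell viability assay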
Description: SANGER: Inhibition of human SW982 cell growth in a cell viability assay.

CTB-1 = format: functional, cell-based, Homo sapiens; conditions: Homo sapiens, CTB-1
Description: SANGER: Inhibition of human CTB-1 cell growth in a cell viability assay.

SNU-C2B = format: functional, cell-based, Homo sapiens; conditions: Homo sapiens, SNU-C2B;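 note: cell viability readout used to measure compound-driven suppression of SNU-C2B cell proliferation, IC50 marking half-maximal growth inhibition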
Description: SANGER: Inhibition of human SNU-C2B cell growth in a cell viability assay.

QIMR-WIL = format: functional, cell-based, Homo sapiens; conditions: Homo sapiens, QIMR-WIL;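 note: growth inhibition of QIMR-WIL cells, read out with a cell viability assay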
Description: SANGER: Inhibition of human QIMR-WIL cell growth in a cell viability assay.

SK-MEL-2 = format: functional, cell-based, Homo sapiens; conditions: Homo sapiens, SK-MEL-2;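 note: growth inhibition of human SK-MEL-2 cells measured with a cell viability assay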
Description: SANGER: Inhibition of human SK-MEL-2 cell growth in a cell viability assay.

HD-MY-Z = format: functional, cell-based, Homo sapiens; conditions: Homo sapiens, HD-MY-Z;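 note: growth inhibition of HD-MY-Z cells, read out with a cell viability assay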
Description: SANGER: Inhibition of human HD-MY-Z cell growth in a cell viability assay.

KURAMOCHI = format: functional, cell-based, Homo sapiens; conditions: Homo sapiens, KURAMOCHI;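 note: growth inhibition of KURAMOCHI cells, read out with a cell viability assay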
Description: SANGER: Inhibition of human KURAMOCHI cell growth in a cell viability assay.

KM12 = format: functional, cell-based, Homo sapiens; conditions: Homo sapiens, KM12;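 note: KM12 cell growth inhibition, read out with a cell viability assay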
Description: SANGER: Inhibition of human KM12 cell growth in a cell viability assay.

LS-123 = format: functional, cell-based, Homo sapiens; conditions: Homo sapiens, LS-123
Description: SANGER: Inhibition of human LS-123 cell growth in a cell viability assay.

8-MG-BA = format: functional, cell-based, Homo sapiens; conditions: Homo sapiens, 8-MG-BA;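 note: growth inhibition of 8-MG-BA cells, read out with a cell viability assay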
Description: SANGER: Inhibition of human 8-MG-BA cell growth in a cell viability assay.

CW-2 = format: functional, cell-based, Homo sapiens; conditions: Homo sapiens, CW-2;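 note: growth inhibition of CW-2 cells, read out by a cell viability assay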
Description: SANGER: Inhibition of human CW-2 cell growth in a cell viability assay.

MC116 = format: functional, cell-based, Homo sapiens; conditions: Homo sapiens, MC116;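 note: growth inhibition of MC116 cells, read out with a cell viability assay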
Description: SANGER: Inhibition of human MC116 cell growth in a cell viability assay.

EW-11 = format: functional, cell-based, Homo sapiens; conditions: Homo sapiens, EW-11;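 note: growth inhibition of human EW-11 cells, measured with a cell viability assay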
Description: SANGER: Inhibition of human EW-11 cell growth in a cell viability assay.

NCI-H69 = format: functional, cell-based, Homo sapiens; conditions: Homo sapiens, NCI-H69;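 note: growth inhibition of the cell line, read out with a cell viability assay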
Description: SANGER: Inhibition of human NCI-H69 cell growth in a cell viability assay.

ONS-76 = format: functional, cell-based, Homo sapiens; conditions: Homo sapiens, ONS-76;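 note: growth inhibition of human ONS-76 cells, read out with a cell viability assay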
Description: SANGER: Inhibition of human ONS-76 cell growth in a cell viability assay.

A388 = format: functional, cell-based, Homo sapiens; conditions: Homo sapiens, A388;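 note: growth inhibition of human A388 cells, read out with a cell viability assay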
Description: SANGER: Inhibition of human A388 cell growth in a cell viability assay.

KMOE-2 = format: functional, cell-based, Homo sapiens; conditions: Homo sapiens, KMOE-2;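 note: growth inhibition of human KMOE-2 cells, read out with a cell viability assay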
Description: SANGER: Inhibition of human KMOE-2 cell growth in a cell viability assay.

MFM-223 = format: functional, cell-based, Homo sapiens; conditions: Homo sapiens, MFM-223
Description: SANGER: Inhibition of human MFM-223 cell growth in a cell viability assay.

MLMA = format: functional, cell-based, Homo sapiens; conditions: Homo sapiens, MLMA;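 note: growth inhibition of MLMA cells (human), determined through a cell viability readout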
Description: SANGER: Inhibition of human MLMA cell growth in a cell viability assay.

TGBC1TKB = format: functional, cell-based, Homo sapiens; conditions: Homo sapiens, TGBC1TKB;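 note: growth inhibition of TGBC1TKB cells, read out by a cell viability assay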
Description: SANGER: Inhibition of human TGBC1TKB cell growth in a cell viability assay.

CGTH-W-1 = format: functional, cell-based, Homo sapiens; conditions: Homo sapiens, CGTH-W-1;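 note: growth inhibition of human CGTH-W-1 cells measured by cell viability assay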
Description: SANGER: Inhibition of human CGTH-W-1 cell growth in a cell viability assay.

U-87 MG = format: functional, cell-based, Homo sapiens, U-87MG ATCC; conditions: Homo sapiens, U-87 MG;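 note: growth inhibition of the cells measured with a viability assay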
Description: SANGER: Inhibition of human U-87-MG cell growth in a cell viability assay.

LC-2-ad = format: functional, cell-based, Homo sapiens; conditions: Homo sapiens, LC-2-ad;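 note: growth inhibition of human LC-2-ad cells, read out with a cell viability assay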
Description: SANGER: Inhibition of human LC-2-ad cell growth in a cell viability assay.

OS-RC-2 = format: functional, cell-based, Homo sapiens; conditions: Homo sapiens, OS-RC-2;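 note: growth inhibition of human OS-RC-2 cells, measured by a cell viability assay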
Description: SANGER: Inhibition of human OS-RC-2 cell growth in a cell viability assay.

OCUB-M = format: functional, cell-based, Homo sapiens; conditions: Homo sapiens, OCUB-M;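 note: growth inhibition of the cancer cell line, read out through a cell viability assay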
Description: SANGER: Inhibition of human OCUB-M cell growth in a cell viability assay.

LAMA-84 = format: functional, cell-based, Homo sapiens; conditions: Homo sapiens, LAMA-84;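 note: growth inhibition of LAMA-84 cells, read out with a cell viability assay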
Description: SANGER: Inhibition of human LAMA-84 cell growth in a cell viability assay.

SK-UT-1 = format: functional, cell-based, Homo sapiens; conditions: Homo sapiens, SK-UT-1;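 note: growth inhibition of SK-UT-1 cells, measured by a cell viability assay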
Description: SANGER: Inhibition of human SK-UT-1 cell growth in a cell viability assay.

ES3 = format: functional, cell-based, Homo sapiens; conditions: Homo sapiens, ES3;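 note: growth inhibition of ES3 cells, read out with a cell viability assay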
Description: SANGER: Inhibition of human ES3 cell growth in a cell viability assay.

K562 = format: functional, cell-based, Homo sapiens; conditions: Homo sapiens, K562
Description: SANGER: Inhibition of human K-562 cell growth in a cell viability assay.

MS-1 = format: functional, cell-based, Homo sapiens; conditions: Homo sapiens, MS-1;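 note: growth inhibition of MS-1 cells, read out by cell viability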
Description: SANGER: Inhibition of human MS-1 cell growth in a cell viability assay.

CC(=O)O[C@H]1C(=O)[C@@]2(C)[C@H]([C@H](OC(=O)c3ccccc3)[C@]3(O)C[C@H](OC(=O)[C@H](O)[C@@H](NC(=O)c4ccccc4)c4ccccc4)C(C)=C1C3(C)C)[C@]1(OC(C)=O)CO[C@@H]1C[C@@H]2O [PACLITAXEL]
IC50 (NH-12): > 102 nM
IC50 (SBC-1): 50.4 nM
IC50 (P30-OHK): > 102 nM
IC50 (HH): 71.6 nM
IC50 (KU812 cell line): 20.4 nM
IC50 (TGW): 86.1 nM
IC50 (COLO-668): > 102 nM
IC50 (LS-513): > 102 nM
IC50 (NCI-H1092): > 102 nM
IC50 (EW-13): > 102 nM
IC50 (NB17): 49.8 nM
IC50 (COR-L88): 59.3 nM
IC50 (JAR): 29.5 nM
IC50 (DMS-79): > 102 nM
IC50 (HAL-01): > 102 nM
IC50 (HL-60): 9.66 nM
IC50 (GAK): 102 nM
IC50 (DSH1): > 102 nM
IC50 (SW982): 7.66 nM
IC50 (CTB-1): 78.1 nM
IC50 (SNU-C2B): 15 nM
IC50 (QIMR-WIL): 10.3 nM
IC50 (SK-MEL-2): > 102 nM
IC50 (HD-MY-Z): 11.6 nM
IC50 (KURAMOCHI): 7.48 nM
IC50 (KM12): 6.37 nM
IC50 (LS-123): 16.6 nM
IC50 (8-MG-BA): 7.96 nM
IC50 (CW-2): > 102 nM
IC50 (MC116): 2.89 nM
IC50 (EW-11): > 102 nM
IC50 (NCI-H69): 17.8 nM
IC50 (ONS-76): 20.4 nM
IC50 (A388): 8.74 nM
IC50 (KMOE-2): > 102 nM
IC50 (MFM-223): > 102 nM
IC50 (MLMA): 74.6 nM
IC50 (TGBC1TKB): 17.5 nM
IC50 (CGTH-W-1): 54.5 nM
IC50 (U-87 MG): > 102 nM
IC50 (LC-2-ad): 0.317 nM
IC50 (OS-RC-2): 77.5 nM
IC50 (OCUB-M): 6.62 nM
IC50 (LAMA-84): > 102 nM
IC50 (SK-UT-1): 4.8 nM
IC50 (ES3): > 102 nM
IC50 (K562): 15.2 nM
IC50 (MS-1): > 102 nM

CCN(CC)CCNC(=O)c1c(C)[nH]c(/C=C2\C(=O)Nc3ccc(F)cc32)c1C [SUNITINIB]
IC50 (NH-12): > 8000 nM
IC50 (SBC-1): > 8000 nM
IC50 (P30-OHK): > 8000 nM
IC50 (HH): 4210 nM
IC50 (KU812 cell line): 6690 nM
IC50 (TGW): > 8000 nM
IC50 (COLO-668): > 8000 nM
IC50 (LS-513): > 8000 nM
IC50 (NCI-H1092): > 8000 nM
IC50 (EW-13): > 8000 nM
IC50 (NB17): > 8000 nM
IC50 (COR-L88): > 8000 nM
IC50 (JAR): 3990 nM
IC50 (DMS-79): > 8000 nM
IC50 (HAL-01): 2060 nM
IC50 (HL-60): 4210 nM
IC50 (DSH1): > 8000 nM
IC50 (SW982): 4550 nM
IC50 (CTB-1): > 8000 nM
IC50 (SNU-C2B): > 8000 nM
IC50 (QIMR-WIL): 3630 nM
IC50 (SK-MEL-2): > 8000 nM
IC50 (HD-MY-Z): 5170 nM
IC50 (KURAMOCHI): > 8000 nM
IC50 (KM12): 350 nM
IC50 (LS-123): > 8000 nM
IC50 (8-MG-BA): 6520 nM
IC50 (CW-2): > 8000 nM
IC50 (MC116): 4430 nM
IC50 (EW-11): > 8000 nM
IC50 (NCI-H69): > 8000 nM
IC50 (ONS-76): > 8000 nM
IC50 (A388): > 8000 nM
IC50 (KMOE-2): > 8000 nM
IC50 (MFM-223): > 8000 nM
IC50 (MLMA): > 8000 nM
IC50 (TGBC1TKB): > 8000 nM
IC50 (CGTH-W-1): 30.9 nM
IC50 (U-87 MG): > 8000 nM
IC50 (LC-2-ad): 1110 nM
IC50 (OS-RC-2): 4870 nM
IC50 (OCUB-M): > 8000 nM
IC50 (LAMA-84): 2700 nM
IC50 (SK-UT-1): > 8000 nM
IC50 (ES3): > 8000 nM
IC50 (K562): > 8000 nM
IC50 (MS-1): 3840 nM
